System: NCI-H1876 tumor spheroid viability
Assay: Anticancer human tumor NCI-H1876 cell line growth inhibition;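 note: spheroids exposed to compounds for seven days before the viability read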;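 for viability, T/C: percent of DMSO vehicle control viability so 100% = vehicle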
Settings: spheroids with HUVEC and MSC; for IC50: curve of first compound; for viability, T/C: stronger effect = lower value
Method in brief: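 Complex spheroids of malignant cells with endothelial cells and mesenchymal stem cells; agents alone or combined, from near clinical Cmax (or 10 microM if unknown) down in half-log steps, 0.25% DMSO final.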

[1] = second compound 1 µM, first compound 0.00949 µM
[2] = second compound 1 µM, first compound 0.03 µM
[3] = second compound 1 µM, first compound 0.0949 µM
[4] = second compound 1 µM, first compound 0.3 µM
[5] = second compound 1 µM, first compound 0.949 µM
[6] = second compound 1 µM, first compound 3 µM
[7] = second compound 3.16 µM, first compound 0.00949 µM
[8] = second compound 3.16 µM, first compound 0.03 µM
[9] = second compound 3.16 µM, first compound 0.0949 µM
[10] = second compound 3.16 µM, first compound 0.3 µM
[11] = second compound 3.16 µM, first compound 0.949 µM
[12] = second compound 3.16 µM, first compound 3 µM
[13] = second compound 10 µM, first compound 0.00949 µM
[14] = second compound 10 µM, first compound 0.03 µM
[15] = second compound 10 µM, first compound 0.0949 µM
[16] = second compound 10 µM, first compound 0.3 µM
[17] = second compound 10 µM, first compound 0.949 µM
[18] = second compound 10 µM, first compound 3 µM
[19] = second compound 31.6 µM, first compound 0.00949 µM
[20] = second compound 31.6 µM, first compound 0.03 µM
[21] = second compound 31.6 µM, first compound 0.0949 µM
[22] = second compound 31.6 µM, first compound 0.3 µM
[23] = second compound 31.6 µM, first compound 0.949 µM
[24] = second compound 31.6 µM, first compound 3 µM
[25] = second compound 100 µM, first compound 0.00949 µM
[26] = second compound 100 µM, first compound 0.03 µM
[27] = second compound 100 µM, first compound 0.0949 µM
[28] = second compound 100 µM, first compound 0.3 µM
[29] = second compound 100 µM, first compound 0.949 µM
[30] = second compound 100 µM, first compound 3 µM

Row | Structure (SMILES) | IC50 (second compound 1 µM) [nM] | IC50 (second compound 3.16 µM) [nM] | IC50 (second compound 10 µM) [nM] | IC50 (second compound 31.6 µM) [nM] | IC50 (second compound 100 µM) [nM] | viability, T/C [3] [%] | viability, T/C [4] [%] | viability, T/C [5] [%] | viability, T/C [6] [%] | viability, T/C [9] [%] | viability, T/C [10] [%] | viability, T/C [11] [%] | viability, T/C [12] [%] | viability, T/C [15] [%] | viability, T/C [16] [%] | viability, T/C [17] [%] | viability, T/C [18] [%] | viability, T/C [21] [%] | viability, T/C [22] [%] | viability, T/C [23] [%] | also measured
1 | CNCc1ccc(-c2cc(-c3nc(-c4ccc(S(=O)(=O)C(C)C)cc4)cnc3N)on2)cc1 + Cn1nnc2c(C(N)=O)ncn2c1=O | 121 | 83.7 | 92.3 | 89.3 | < 9.49 | 54.9 | 33.6 | 12.6 | 0.35 | 55.4 | 29.7 | 15.2 | 0.44 | 54 | 29.9 | 13.1 | 11 | 58.2 | 30.1 | 51.8 | viability, T/C [1]: 82%; viability, T/C [2]: 70.7%; viability, T/C [7]: 95.4%; viability, T/C [8]: 54.9%; viability, T/C [13]: 86.9%; viability, T/C [14]: 65.2%; viability, T/C [19]: 82%; viability, T/C [20]: 57.8%; viability, T/C [24]: 45.7%; viability, T/C [25]: 50.8%; viability, T/C [26]: 43%; viability, T/C [27]: 36.5%; viability, T/C [28]: 20.9%; viability, T/C [29]: 47.9%; viability, T/C [30]: 0.26%
2 | Cc1sc2c(c1C)C(c1ccc(Cl)cc1)=NC(CC(=O)Nc1ccc(O)cc1)c1nnc(C)n1-2 (stereo not given) + Cn1nnc2c(C(N)=O)ncn2c1=O | 55.8 | 176 | 89.4 | 73.7 | 23.5 | 45 | 27 | 15.7 | 8.48 | 54.2 | 50.6 | 15.3 | 10.5 | 55.1 | 31 | 15.1 | 9 | 39.4 | 25.6 | 13.2 | viability, T/C [1]: 85.6%; viability, T/C [2]: 56%; viability, T/C [7]: 84%; viability, T/C [8]: 75.2%; viability, T/C [13]: 87.3%; viability, T/C [14]: 62.2%; viability, T/C [19]: 87.3%; viability, T/C [20]: 75.6%; viability, T/C [24]: 8.31%; viability, T/C [25]: 63.4%; viability, T/C [26]: 44.6%; viability, T/C [27]: 34.2%; viability, T/C [28]: 19.6%; viability, T/C [29]: 9.06%; viability, T/C [30]: 4.09%
3 | Cn1ncnc1[C@H]1c2n[nH]c(=O)c3cc(F)cc(c23)N[C@@H]1c1ccc(F)cc1 + Cn1nnc2c(C(N)=O)ncn2c1=O | 43.2 | 60.8 | 16 | < 9.49 | < 9.49 | 39 | 25.1 | 10.8 | 5.26 | 52.3 | 20 | 50 | 15.5 | 47.2 | 15 | 33.5 | 5.45 | 14.5 | 12 | 8.61 | viability, T/C [1]: 70.1%; viability, T/C [2]: 54.6%; viability, T/C [7]: 72.4%; viability, T/C [8]: 52.1%; viability, T/C [13]: 56.8%; viability, T/C [14]: 38.1%; viability, T/C [19]: 29.2%; viability, T/C [20]: 19.2%; viability, T/C [24]: 4.86%; viability, T/C [25]: 13.8%; viability, T/C [26]: 10.8%; viability, T/C [27]: 11.6%; viability, T/C [28]: 9.19%; viability, T/C [29]: 33.3%; viability, T/C [30]: 4.67%
4 | O=C(c1cc(Cc2n[nH]c(=O)c3ccccc23)ccc1F)N1CCN(C(=O)C2CC2)CC1 + Cn1nnc2c(C(N)=O)ncn2c1=O | 6950 | 25400 | 9730 | 2700 | < 94.9 | 85.1 | 69.8 | 77.8 | 64.6 | 89.8 | 82.4 | 72.7 | 61.5 | 79.2 | 70.3 | 64.6 | 53.7 | 75.3 | 69.4 | 53.3 | viability, T/C (second compound 1 µM, first compound 9.49 µM): 32.2%; viability, T/C (second compound 1 µM, first compound 30 µM): 56.9%; viability, T/C (second compound 3.16 µM, first compound 9.49 µM): 65.2%; viability, T/C (second compound 3.16 µM, first compound 30 µM): 45.1%; viability, T/C (second compound 10 µM, first compound 9.49 µM): 60%; viability, T/C (second compound 10 µM, first compound 30 µM): 17.2%; viability, T/C [24]: 55.7%; viability, T/C (second compound 31.6 µM, first compound 9.49 µM): 32.9%; viability, T/C (second compound 31.6 µM, first compound 30 µM): 15.8%; viability, T/C [27]: 54.7%; viability, T/C [28]: 31.5%; viability, T/C [29]: 29.6%; viability, T/C [30]: 62.5%; viability, T/C (second compound 100 µM, first compound 9.49 µM): 18.8%; viability, T/C (second compound 100 µM, first compound 30 µM): 15.7%

Source: PubChem BioAssay AID1845207 (Molecular Pharmacology Branch, DTP, NCI, 2023)
